Columns and labels:
Format in all cases: cell-based
[1] = Cytotoxicity in mock-infected MT-4 cells (MTT method); conditions: human
Description: The activity of the test compounds against the replication of HIV-1 wt and mutant strains (N119, A17, EFV^R, AZT^R, MDR, SAQ^R) and HIV-2 wt in acutely infected cells was based on the inhibition of virus-induced cytopathogenicity in MT-4 and C8166 cells, respectively. Briefly, 50 μL of culture medium containing 1 × 10^4 cells was added to each well of flat-bottom microtitre trays containing 50 μL of culture medium with or without different serial concentrations of test compounds. Then, 20 μL of an HIV suspension (containing the appropriate amount of CCID50 required to cause complete cytopathogenicity on day 4, final multiplicity of infection [m.o.i.] 0.01) was added. After incubation at 37 °C, cell viability was determined using the […] (MTT) method ([Pauwels et al., 1988]). The cytotoxicity of the test compounds was evaluated in parallel with their antiviral activity through the viability of mock-infected, treated cells, as monitored by the MTT method and described elsewhere ([Morellet et al., 1994]).

[2] = test system: HIV-1 IIIB strain; test: microbe, parasite or virus in culture; conditions: for EC50: Human immunodeficiency virus 1, IIIB, MT4, read-out: EC50 HIV-1; for Selectivity Index (SI = CC50/EC50) HIV-1: IIIB strain, in round brackets
Description: (§1) HIV-1IIIB and HIV-2 CBL-20 strains were obtained from the supernatants of persistently infected H9/IIIB and CEM cells, respectively. HIV-1 and HIV-2 stock solutions had titres of 4.5 × 10^7 and 1.4 × 10^6 50% cell culture infectious doses (CCID50)/ml, respectively. […] The K103R + V179D + P225H mutant (EFVR) was derived from an IIIB strain passaged in MT-4 cells in the presence of Efavirenz (up to 2 μM). N119, A17 and EFV^R stock solutions had titres of 1.2 × 10^8, 2.1 × 10^7, and 4.0 × 10^7 CCID50/ml, respectively.
(§2) The activity of the test compounds against the replication of HIV-1 wt and mutant strains (N119, A17, EFV^R, AZT^R, MDR, SAQ^R) and HIV-2 wt in acutely infected cells was based on the inhibition of virus-induced cytopathogenicity in MT-4 and C8166 cells, respectively. Briefly, 50 μL of culture medium containing 1 × 10^4 cells was added to each well of flat-bottom microtitre trays containing 50 μL of culture medium with or without different serial concentrations of test compounds. Then, 20 μL of an HIV suspension (containing the appropriate amount of CCID50 required to cause complete cytopathogenicity on day 4, final multiplicity of infection [m.o.i.] 0.01) was added.

[3] = test system: HIV-1 N119 (Y181C); test: Inhibition of virus-induced cytopathogenicity in MT-4 cells, NNRTI-resistant mutant N119; conditions: for EC50: Human immunodeficiency virus 1, MT4, read-out: EC50 N119; for Selectivity Index (SI = CC50/EC50) N119: in round brackets
Description: as §1, §2

[4] = test system: HIV-1 A17 (K103N + Y181C); test: Inhibition of virus-induced cytopathogenicity in MT-4 cells, NNRTI-resistant mutant A17; conditions: for EC50: Human immunodeficiency virus 1, MT4, read-out: EC50 A17; for Selectivity Index (SI = CC50/EC50) A17: in round brackets
Description: as §1, §2

[5] = test system: HIV-1 EFVR (K103R + V179D + P225H); test: Inhibition of virus-induced cytopathogenicity in MT-4 cells, NNRTI-resistant mutant EFVR; conditions: for EC50: Human immunodeficiency virus 1, MT4, read-out: EC50 EFVR; for Selectivity Index (SI = CC50/EC50) EFVR: in round brackets
Description: as §1, §2

[6] = test system: HIV-1 AZTR (67N, 70R, 215F, 219Q); test: Inhibition of virus-induced cytopathogenicity in MT-4 cells, NRTI-resistant mutant AZTR; conditions: for EC50: Human immunodeficiency virus 1, MT4, read-out: EC50 AZTR; for Selectivity Index (SI = CC50/EC50) AZTR: in round brackets
Description: as §1, §2

[7] = test system: HIV-1 MDR (74V, 41L, 106A, 215Y); test: Inhibition of virus-induced cytopathogenicity in MT-4 cells, NRTI-resistant mutant MDR; conditions: for EC50: Human immunodeficiency virus 1, MT4, read-out: EC50 MDR; for Selectivity Index (SI = CC50/EC50) MDR: in round brackets
Description: as §1, §2

[8] = test system: HIV-1 SAQR (L10F, G48V, L90M); test: Inhibition of virus-induced cytopathogenicity in MT-4 cells, PRI-resistant mutant SAQR; conditions: for EC50: Human immunodeficiency virus 1, MT4, read-out: EC50 SAQR; for Selectivity Index (SI = CC50/EC50) SAQR: in round brackets
Description: as §1, §2

Row | Compound | CC50 at 4 days [1] [µM] | EC50 [2] [µM] | Selectivity Index (SI = CC50/EC50) HIV-1 [2] | EC50 [3] [µM] | Selectivity Index (SI = CC50/EC50) N119 [3] | EC50 [4] [µM] | Selectivity Index (SI = CC50/EC50) A17 [4] | EC50 [5] [µM] | Selectivity Index (SI = CC50/EC50) EFVR [5] | EC50 [6] [µM] | EC50 [7] [µM] | EC50 [8] [µM] | Selectivity Index (SI = CC50/EC50) AZTR [6] | Selectivity Index (SI = CC50/EC50) MDR [7] | Selectivity Index (SI = CC50/EC50) SAQR [8]
1 | O=c1c2ccccc2sn1NS(=O)(=O)c1ccc([N+](=O)[O-])cc1 [Compound 8, 4-Nitro-N-(3-oxo-1,2-benzisothiazol-2(3H)-yl)benzenesulfonamide] | > 100 | 15 ± 4 | > 7 | 7 ± 0.5 | > 14 | 11 ± 2 | > 9 | 9 ± 2 | > 11 | 7 ± 0.7 | 6 ± 0.5 | 8 ± 1 | – | – | –
2 | COc1ccc(S(=O)(=O)Nn2sc3ccccc3c2=O)cc1 [Compound 9, 4-Methoxy-N-(3-oxo-1,2-benzisothiazol-2(3H)-yl)benzenesulfonamide] | 56 ± 0.1 | 8 ± 2 | 7 | 6 ± 0.5 | 9 | 8 ± 1 | 7 | 6 ± 0.7 | 9 | 5 ± 1 | 6 ± 0.7 | 7 ± 1 | 11 | 9 | 8
3 | O=c1c2ccccc2sn1NS(=O)(=O)c1ccccc1F [Compound 10, 2-Fluoro-N-(3-oxo-1,2-benzisothiazol-2(3H)-yl)benzenesulfonamide] | > 100 | 7 ± 0.8 | > 14 | 6 ± 3 | > 16 | 7 ± 0.7 | > 14 | 5 ± 2 | > 20 | 6 ± 0.5 | 5 ± 0.5 | 7 ± 1 | > 16 | > 20 | > 14
4 | O=c1c2ccccc2sn1NS(=O)(=O)c1ccc(F)cc1 [Compound 11, 4-Fluoro-N-(3-oxo-1,2-benzisothiazol-2(3H)-yl)benzenesulfonamide] | 50 ± 4 | 5 ± 2 | 10 | 5 ± 0.5 | 10 | 5 ± 0.2 | 10 | 2 ± 0.7 | 25 | 5 ± 0.5 | 6 ± 0.5 | 4 ± 0.7 | 10 | 8 | 12
5 | O=c1c2ccccc2sn1NS(=O)(=O)c1ccccc1Cl [Compound 12, 2-Chloro-N-(3-oxo-1,2-benzisothiazol-2(3H)-yl)benzenesulfonamide] | 73 ± 3 | 13 ± 2 | 5 | 7 ± 0.7 | 10 | 11 ± 2 | 6 | 9 ± 0.5 | 8 | 9 ± 0.7 | 7 ± 1 | 9 ± 2 | 8 | 7 | 8
6 | O=c1c2ccccc2sn1NS(=O)(=O)c1ccc(Cl)cc1 [Compound 13, 4-Chloro-N-(3-oxo-1,2-benzisothiazol-2(3H)-yl)benzenesulfonamide] | 33 ± 0.1 | 11 ± 4 | 3 | 6 ± 0.9 | 5 | 8 ± 1.4 | 4 | 3 ± 1 | 10 | 7 ± 1 | 7 ± 2 | 8 ± 2 | 4 | 4 | 4
7 | O=c1c2ccccc2sn1NS(=O)(=O)c1cccc(Cl)c1 [Compound 14, 3-Chloro-N-(3-oxo-1,2-benzisothiazol-2(3H)-yl)benzenesulfonamide] | 40 ± 2 | 5 ± 1 | 8 | 7 ± 1.4 | 5 | 3 ± 1 | – | 7 ± 1 | – | 6 ± 0.7 | 6 ± 1 | 4 ± 0.7 | 6 | 6 | 10
8 | O=c1c2ccccc2sn1NS(=O)(=O)c1ccc(Cl)c(Cl)c1 [Compound 15, 3,4-Dichloro-N-(3-oxo-1,2-benzisothiazol-2(3H)-yl)benzenesulfonamide] | 66 ± 3 | 15 ± 4 | 4 | 7 ± 0.1 | 9 | 8 ± 2 | 8 | 8 ± 1.5 | 8 | 6 ± 1 | 11 ± 3 | 8 ± 2 | 11 | 6 | 8
9 | O=c1c2ccccc2sn1NS(=O)(=O)c1cc(Cl)cc(Cl)c1 [Compound 16, 3,5-Dichloro-N-(3-oxo-1,2-benzisothiazol-2(3H)-yl)benzenesulfonamide] | 86 ± 1 | 16 ± 5 | 5 | 7 ± 0.4 | 12 | 11 ± 2 | 7 | 10 ± 3 | 8 | 8 ± 0.7 | 13 ± 2 | 12 ± 2 | 10 | 6 | 7
10 | O=c1c2cc(Cl)ccc2sn1NS(=O)(=O)c1ccccc1Cl [Compound 18, 2-Chloro-N-(5-chloro-3-oxo-1,2-benzisothiazol-2(3H)-yl)benzenesulfonamide] | > 100 | 16 ± 3 | > 6 | 14 ± 1 | > 5 | 20 ± 4 | > 5 | 7 ± 2 | > 14 | 12 ± 2 | 16 ± 2 | 15 ± 3 | > 8 | > 6 | > 6
11 | O=c1c2ccccc2sn1N(S(=O)(=O)c1ccccc1)S(=O)(=O)c1ccccc1 [Compound 20, N-(3-oxo-1,2-benzisothiazol-2(3H)-yl)-N-(phenylsulfonyl)benzenesulfonamide] | > 100 | 22 ± 3.5 | – | 23 ± 1 | – | 25 ± 2 | > 4 | 22 ± 1 | > 4 | 20 ± 2 | 19 ± 1 | 25 ± 3 | > 5 | > 5 | > 4
12 | Cc1ccc(S(=O)(=O)N(n2sc3ccccc3c2=O)S(=O)(=O)c2ccc(C)cc2)cc1 [Compound 21, 4-Methyl-N-[(4-methylphenyl)sulfonyl]-N-(3-oxo-1,2-benzisothiazol-2(3H)-yl)benzenesulfonamide] | > 100 | 76 | – | 44 | – | 58 | – | 70 | – | 70 | 63 | 63 | – | – | –

— PMC12627007, “HIV nucleocapsid proteins as targets for novel 1,2-benzisothiazol-3(2H)-one benzenesulfonamides: synthesis and antiretroviral activity” (Frontiers in Microbiology, 2025)
